The record followed here is ChEMBL document CHEMBL1821674, “Design, synthesis and biological evaluation of novel nitroaromatic compounds as potent glutathione reductase inhibitors” (Bioorg Med Chem Lett, 2011).

For test [1], the target named is T1, Glutathione reductase, mitochondrial (Homo sapiens, UniProt P00390).
T1 sequence (P00390 whole entry): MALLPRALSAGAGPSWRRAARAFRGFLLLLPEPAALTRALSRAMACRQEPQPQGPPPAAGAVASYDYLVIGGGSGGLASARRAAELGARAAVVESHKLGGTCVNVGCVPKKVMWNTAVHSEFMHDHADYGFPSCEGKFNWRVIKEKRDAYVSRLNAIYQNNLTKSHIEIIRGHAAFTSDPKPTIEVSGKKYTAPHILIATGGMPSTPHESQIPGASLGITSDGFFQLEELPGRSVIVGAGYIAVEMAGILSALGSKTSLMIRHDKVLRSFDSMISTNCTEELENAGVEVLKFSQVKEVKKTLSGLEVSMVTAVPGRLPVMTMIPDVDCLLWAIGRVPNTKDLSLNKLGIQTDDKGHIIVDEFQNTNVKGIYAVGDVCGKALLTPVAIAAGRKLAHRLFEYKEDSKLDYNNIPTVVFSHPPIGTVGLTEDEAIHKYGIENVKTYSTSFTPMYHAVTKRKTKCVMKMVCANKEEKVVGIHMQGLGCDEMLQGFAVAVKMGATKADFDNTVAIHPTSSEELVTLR
The test is described as follows: Inhibition of human erythrocyte Glutathione reductase.

The target in test [2] is T1, Glutathione reductase, mitochondrial. Put plainly: Non-Competitive inhibition of human erythrocyte Glutathione reductase using GSSG substrate by Lineweaver-Burk plot analysis.
Test [3] has the same target.

By IC50 is commonly meant the concentration needed to halve the response being measured. For orientation: Ki means the dissociation constant of the complex between target and ligand, obtained from inhibition or displacement. Low readings indicate a stronger hold on the target, high ones a looser hold on the target. In test [1], `CC(C)(C)OC(=O)N[C@@H](CCCCNC(=O)OCc1ccccc1Cl)C(=O)Oc1ccc([N+](=O)[O-])cc1` yielded an IC50 of 15.4 µM. In test [2], this compound registered a Ki of 4.16 µM.

In test [1], `CC[C@H](CO)NCc1ccc([N+](=O)[O-])cc1` registered an IC50 of 13.3 µM. Besides, the affinity in test [3] corresponds to a Ki of 4.57 µM.

In test [1], `O=C(O)CC[C@H](NC(=O)c1ccc([N+](=O)[O-])cc1)C(=O)O` returned an IC50 of 0.344 µM. In test [3], this compound registered a Ki of 0.211 µM.

`N[C@@H](CCC(=O)O)C(=O)O` [GLUTAMIC ACID] showed an IC50 in test [1] of 53.7 µM. Moreover, the affinity in test [3], expressed as Ki, was 42.7 µM.

Consider `NCCCC[C@H](N)C(=O)O` [LYSINE], for which the IC50 in test [1] is 61.2 µM. In test [3], this compound displayed a Ki of 54.6 µM.

In test [1], `COC(=O)C1=C(C)NC(C)=C(C(=O)OC)C1c1ccccc1[N+](=O)[O-]` [NIFEDIPINE] yielded an IC50 of 23.4 µM. In test [3], this compound displayed a Ki of 17.4 µM.

`O=[N+]([O-])c1ccccc1` [NITROBENZENE] gave an IC50 in test [1] of 547 µM. The compound also yielded a Ki in test [3] of 274 µM.
